pKi: −log10 of the molar value. Like-named read-outs stand apart in the source and are kept apart here.
Columns and labels:
rat orexin 1 receptor = rat orexin 1 receptor (Rattus norvegicus, UniProt P56718); assay: Rat orexin 1 receptor radioligand binding; details: read-out: rOX1 Ki
Description: (§1) Data are analyzed using pc-Sandy macro and graphed on Graphpad Prism 5. For analysis, each concentration point is averaged from triplicate values and the averaged values are plotted on Graphpad Prism. The IC50 was determined by applying the following equation (GraphPad Prism 5.0, SanDiego) for one site competition where X=log (concentration) and Y=specific binding. Top denotes the total [^3H]-(1-(5-(2-fluoro-phenyl)-2-methyl-thiazol-4-yl)-1-((S)-2-(5-phenyl-(1,3,4)oxadiazol-2-ylmethyl)-pyrrolidin-1-yl)-methanone) binding, bottom denotes the nonspecific [^3H]-(1-(5-(2-fluoro-phenyl)-2-methyl-thiazol-4-yl)-1-((S)-2-(5-phenyl-(1,3,4)oxadiazol-2-ylmethyl)-pyrrolidin-1-yl)-methanone) binding. Graphpad Prism calculates Ki value from IC50 and the pre-determined Kd values for [^3H]-(1-(5-(2-fluoro-phenyl)-2-methyl-thiazol-4-yl)-1-((S)-2-(5-phenyl-(1,3,4)oxadiazol-2-ylmethyl)-pyrrolidin-1-yl)-methanone) and [3H]-EMPA. The Ki for each compound is then uploaded into 3DX. Each run comprises individual compounds in triplicate. The data in Table 1 and Table 2 represent averages from between 2-20 runs
(§2) Rat and Human Orexin 1 Receptor Radioligand Binding Studies
(§3) After centrifugation (2K×G, 5 min at 4° C.), the supernatant was aspirated and the pellets frozen and stored at −80° C. […] Each cell pellet from a 15 cm plate was resuspended in 10 mL, stored on ice, and homogenized for 45 sec prior to addition to the reactions. […] The final concentration of DMSO in the reactions is equal to or less than 0.1%. Total and nonspecific binding was determined in the absence and presence of 10 μM almorexant. The total volume of each reaction is 200 μL (20 μL of diluted compounds, 80 μL of [^3H]-(1-(5-(2-fluoro-phenyl)-2-methyl-thiazol-4-yl)-1-((S)-2-(5-phenyl-(1,3,4)oxadiazol-2-ylmethyl)-pyrrolidin-1-yl)-methanone) diluted in PBS and 100 μL of the cell suspension). […] The plates were washed 3 times by aspirating 30 ml PBS through the plates. Plates were dried in 55° C. oven for 60 min, scintillation fluid was added, and the radioactivity was counted on a Topcount (Packard).

human orexin 1 receptor = human orexin 1 receptor (Homo sapiens, UniProt O43613); assay: Human orexin 1 receptor radioligand binding; details: read-out: hOX1 Ki
Description: as §1, §2, §3

human orexin 2 receptor = human orexin 2 receptor (Homo sapiens (Human), UniProt O43614); assay: Human orexin 2 receptor radioligand binding; details: read-out: hOX2 Ki
Description: as §1
Human Orexin 2 Receptor Radioligand Binding Studies
as §3, with “HEK293 stably expressing human orexin 2 receptor (Genebank accession number NM_001526) were grown to confluency in DMEM (Hyclone, cat # SH30022), 10% FBS, 1× Pen/Strep, 1× NaPyruvate, 10 mM HEPES, 600 ug/ml G418 media on 150 cm^2 tissue culture plates, washed with 5 mM EDTA in PBS (HyClone Dulbecco's Phosphate Buffered Saline 1× with Calcium and Magnesium, Cat # SH30264.01, hereafter referred to simply as PBS) and scraped into 50 ml tubes. After” for “After”, “sec just” for “sec”, “[^3H]-EMPA” for “[^3H]-(1-(5-(2-fluoro-phenyl)-2-methyl-thiazol-4-yl)-1-((S)-2-(5-phenyl-(1,3,4)oxadiazol-2-ylmethyl)-pyrrolidin-1-yl)-methanone)”

[1] = rat orexin 1 receptor, averages of 2-20 runs
[2] = human orexin 1 receptor, averages of 2-20 runs
[3] = human orexin 2 receptor, averages of 2-20 runs

Chain of human orexin 2 receptor (O43614 whole entry): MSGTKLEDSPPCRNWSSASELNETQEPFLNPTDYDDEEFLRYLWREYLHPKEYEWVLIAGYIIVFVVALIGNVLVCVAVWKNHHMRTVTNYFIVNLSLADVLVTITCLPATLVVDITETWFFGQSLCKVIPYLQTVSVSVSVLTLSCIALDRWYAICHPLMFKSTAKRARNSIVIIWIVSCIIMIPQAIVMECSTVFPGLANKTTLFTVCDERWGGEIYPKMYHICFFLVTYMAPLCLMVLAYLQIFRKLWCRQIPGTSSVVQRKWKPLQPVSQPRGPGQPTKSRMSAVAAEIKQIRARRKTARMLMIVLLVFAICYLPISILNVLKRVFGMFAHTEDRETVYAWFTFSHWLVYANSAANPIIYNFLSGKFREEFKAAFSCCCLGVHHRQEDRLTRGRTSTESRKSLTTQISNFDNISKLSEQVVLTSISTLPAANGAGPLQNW

Row | pKi (rat orexin 1 receptor; [1]) | pKi (human orexin 1 receptor; [2]) | pKi (human orexin 2 receptor; [3]) | SMILES | also measured
1 | 7.66 | 7.62 |  | O=C(c1ccc(F)cc1-c1ncccn1)N1CC2CCC1C(Oc1ccc(C(F)(F)F)cn1)C2 (racemic) [Example 250, (R/S)-(4-fluoro-2-(pyrimidin-2-yl)phenyl)(6-((5-(trifluoromethyl)pyridin-2-yl)oxy)-2-azabicyclo[2.2.2]octan-2-yl)methanone] | 
2 | 7.74 | 7.96 |  | O=C(c1ccccc1-c1ncc(F)cn1)N1CC2CCC1C(Oc1ccc(C(F)(F)F)cn1)C2 (racemic) [Example 251, (R/S)-(2-(5-fluoropyrimidin-2-yl)phenyl)(6-((5-(trifluoromethyl)pyridin-2-yl)oxy)-2-azabicyclo[2.2.2]octan-2-yl)methanone] | 
3 | 8.10 | 8.15 |  | O=C(c1cc(F)ccc1-c1ncccn1)N1C[C@H]2C[C@@H](Nc3ccc(Cl)cn3)[C@@H]1C2 [Example 172, ((1S,4S,6R)-6-((5-chloropyridin-2-yl)amino)-2-azabicyclo[2.2.1]heptan-2-yl)(5-fluoro-2-(pyrimidin-2-yl)phenyl)methanone] | 
4 | 5.68 |  | 5.52 | COC(=O)c1cnc(N[C@@H]2C[C@H]3C[C@@H]2N(C(=O)c2ccccc2-n2nccn2)C3)cn1 [Example 221, methyl 5-(((1S,4S,6R)-2-(2-(2H-1,2,3-triazol-2-yl)benzoyl)-2-azabicyclo[2.2.1]heptan-6-yl)amino)pyrazine-2-carboxylate] | 
5 | 6.58 |  | < 5.00 | O=C(c1cccnc1-n1nccn1)N1C[C@H]2C[C@@H](Nc3ncc(C(F)(F)F)cn3)[C@@H]1C2 [Example 222, (2-(2H-1,2,3-triazol-2-yl)pyridin-3-yl)((1S,4S,6R)-6-((5-(trifluoromethyl)pyrimidin-2-yl)amino)-2-azabicyclo[2.2.1]heptan-2-yl)methanone] | 
6 | 6.55 |  | 5.96 | CCOc1ccc(C)nc1C(=O)N1C[C@H]2C[C@@H](Nc3ncc(C(F)(F)F)cn3)[C@@H]1C2 [Example 233, (3-ethoxy-6-methylpyridin-2-yl)((1S,4S,6R)-6-((5-(trifluoromethyl)pyrimidin-2-yl)amino)-2-azabicyclo[2.2.1]heptan-2-yl)methanone] | 
7 | 7.80 | 7.72 |  | O=C(c1ccc(F)cc1-c1ncccn1)N1C[C@@H]2CC[C@H]1[C@H](Oc1ccc(C(F)(F)F)cn1)C2 [Example 259, (4-fluoro-2-(pyrimidin-2-yl)phenyl)((1S,4R,6R)-6-((5-(trifluoromethyl)pyridin-2-yl)oxy)-2-azabicyclo[2.2.2]octan-2-yl)methanone] | 
8 | 8.00 | 8.00 |  | O=C(c1ccccc1-c1ncc(F)cn1)N1C[C@@H]2CC[C@H]1[C@H](Oc1ccc(C(F)(F)F)cn1)C2 [Example 262, (2-(5-fluoropyrimidin-2-yl)phenyl)((1S,4R,6R)-6-((5-(trifluoromethyl)pyridin-2-yl)oxy)-2-azabicyclo[2.2.2]octan-2-yl)methanone] | 
9 | 5.57 |  | < 5.00 | O=C(c1cccc(F)c1-c1ncccn1)N1C[C@H]2CC[C@@H]1[C@@H](Nc1cnc(C(F)(F)F)cn1)C2 [Example 276, (3-fluoro-2-(pyrimidin-2-yl)phenyl)((1R,4S,6S)-6-((5-(trifluoromethyl)pyrazin-2-yl)amino)-2-azabicyclo[2.2.2]octan-2-yl)methanone] | 
10 | 6.09 |  | 5.51 | Cc1ccc(-n2nccn2)c(C(=O)N2C[C@H]3C[C@@H](Oc4ccc5cccnc5n4)[C@@H]2C3)n1 [Example 286, ((1S,4R,6R)-6-((1,8-naphthyridin-2-yl)oxy)-2-azabicyclo[2.2.1]heptan-2-yl)(6-methyl-3-(2H-1,2,3-triazol-2-yl)pyridin-2-yl)methanone] | 

Continued, compound first:

Row | SMILES | pKi (rat orexin 1 receptor; [1]) | pKi (human orexin 1 receptor; [2]) | pKi (human orexin 2 receptor; [3]) | also measured
11 | Cc1cccc(C(=O)N2C[C@H]3C[C@@H](Oc4ccc(C(F)(F)F)cn4)[C@@H]2C3)c1-c1ncco1 [Example 32, (3-methyl-2-(oxazol-2-yl)phenyl)((1S,4R,6R)-6-((5-(trifluoromethyl)pyridin-2-yl)oxy)-2-azabicyclo[2.2.1]heptan-2-yl)methanone] |  | 8.22 |  | 
12 | Cc1ccc(C(=O)N2C[C@H]3C[C@@H](Oc4ccc(C(F)(F)F)cn4)[C@@H]2C3)c(-n2ccnn2)n1 [Example 34, (6-methyl-2-(1H-1,2,3-triazol-1-yl)pyridin-3-yl)((1S,4R,6R)-6-((5-(trifluoromethyl)pyridin-2-yl)oxy)-2-azabicyclo[2.2.1]heptan-2-yl)methanone] | 6.79 | 6.43 |  | 
13 | O=C(c1ccccc1-n1nccn1)N1C[C@H]2C[C@@H](Oc3ccc(C(F)(F)F)cn3)[C@@H]1C2 [Example 36, (2-(2H-1,2,3-triazol-2-yl)phenyl)((1S,4R,6R)-6-((5-(trifluoromethyl)pyridin-2-yl)oxy)-2-azabicyclo[2.2.1]heptan-2-yl)methanone] |  | 7.89 |  | 
14 | O=C(c1ccc(F)cc1-n1nccn1)N1C[C@H]2C[C@@H](Oc3ccc(C(F)(F)F)cn3)[C@@H]1C2 [Example 44, (4-fluoro-2-(2H-1,2,3-triazol-2-yl)phenyl)((1S,4R,6R)-6-((5-(trifluoromethyl)pyridin-2-yl)oxy)-2-azabicyclo[2.2.1]heptan-2-yl)methanone] |  | 7.41 | 5.63 | 
15 | O=C(c1c(F)cccc1-c1ncccn1)N1C[C@H]2C[C@@H](Oc3ccc(Br)cn3)[C@@H]1C2 [Example 47, ((1S,4R,6R)-6-((5-bromopyridin-2-yl)oxy)-2-azabicyclo[2.2.1]heptan-2-yl)(2-fluoro-6-(pyrimidin-2-yl)phenyl)methanone] | 8.22 | 8.05 |  | 
16 | O=C(c1ccccc1-n1nccn1)N1C[C@H]2C[C@@H](Nc3ccc(C(F)(F)F)cn3)[C@@H]1C2 [Example 53, (2-(2H-1,2,3-triazol-2-yl)phenyl)((1S,4S,6R)-6-((5-(trifluoromethyl)pyridin-2-yl)amino)-2-azabicyclo[2.2.1]heptan-2-yl)methanone] |  | 8.40 |  | 
17 | Cc1ccc(-n2nccn2)c(C(=O)N2C[C@H]3C[C@@H](Nc4ccc(C(F)(F)F)cn4)[C@@H]2C3)n1 [Example 54, (6-methyl-3-(2H-1,2,3-triazol-2-yl)pyridin-2-yl)((1S,4S,6R)-6-((5-(trifluoromethyl)pyridin-2-yl)amino)-2-azabicyclo[2.2.1]heptan-2-yl)methanone] |  |  |  | pKi (rat orexin 1 receptor): 8.22; pKi (human orexin 1 receptor): 8.30
18 | CN(c1ccc(C(F)(F)F)cn1)[C@@H]1C[C@H]2C[C@@H]1N(C(=O)c1cccc(F)c1-c1ncccn1)C2 [Example 157, (3-fluoro-2-(pyrimidin-2-yl)phenyl)((1S,4S,6R)-6-(methyl(5-(trifluoromethyl)pyridin-2-yl)amino)-2-azabicyclo[2.2.1]heptan-2-yl)methanone] | 8.22 |  | 6.45 | 
19 | CC(=O)N(c1ccc(C(F)(F)F)cn1)[C@@H]1C[C@H]2C[C@@H]1N(C(=O)c1cccc(F)c1-c1ncccn1)C2 [Example 162, N-((1S,4R,6R)-2-(3-fluoro-2-(pyrimidin-2-yl)benzoyl)-2-azabicyclo[2.2.1]heptan-6-yl)-N-(5-(trifluoromethyl)pyridin-2-yl)acetamide] | < 5.00 |  | < 5.00 | 
20 | O=C(c1ccccc1-n1nccn1)N1C[C@@H]2CC[C@H]1[C@H](Nc1cnc(C(F)(F)F)cn1)C2 [Example 275, (2-(2H-1,2,3-triazol-2-yl)phenyl)((1S,4R,6R)-6-((5-(trifluoromethyl)pyrazin-2-yl)amino)-2-azabicyclo[2.2.2]octan-2-yl)methanone] |  |  |  | pKi (human orexin 2 receptor): 6.76; pKi (rat orexin 1 receptor): 8.10
